Data from ChEMBL document CHEMBL3734649, “H2O-mediated isatin spiro-epoxide ring opening with NaCN: Synthesis of novel 3-tetrazolylmethyl-3-hydroxy-oxindole hybrids and their anticancer evaluation” (Eur J Med Chem, 2015).
pIC50: −log10 of the molar value.

Columns and labels:
[1] = Anticancer activity against human BT549 cells after 48 hrs by MTT assay; type: functional, cell-based; settings: BT-549, 48 h
MDA-MB-231 = assay: Anticancer activity against human MDA-MB-231 cells after 48 hrs by MTT assay; type: functional, cell-based; settings: MDA-MB-231, 48 h
[2] = Anticancer activity against human PC3 cells after 48 hrs by MTT assay; type: functional, cell-based; settings: PC-3, 48 h
[3] = Anticancer activity against human DU145 cells after 48 hrs by MTT assay; type: functional, cell-based; settings: DU-145, 48 h
[4] = Anticancer activity against human PA1 cells after 48 hrs by MTT assay; type: functional, cell-based; settings: PA-1, 48 h
[5] = Cytotoxicity against human RWPE1 cells after 48 hrs by MTT assay; type: cell-based; settings: RWPE-1, 48 h
[6] = Selectivity index, ratio of IC50 for human RWPE1 cells to IC50 for human DU145 cells; type: functional

| Compound | pIC50 (MDA-MB-231) | pIC50 [1] | pIC50 [2] | pIC50 [3] | pIC50 [4] | pIC50 [5] | Ratio IC50 [6] |
| --- | --- | --- | --- | --- | --- | --- | --- |
| O=C1N(Cc2ccc(Br)cc2)c2ccccc2C1(O)Cc1nnn[nH]1 (stereo not drawn) | < 4.00 | 4.13 | 4.99 | 5.15 | 4.41 | 4.12 | 10 |
| CCN1C(=O)C(O)(Cc2nnn[nH]2)c2cc(Cl)ccc21 (stereo not drawn) | 4.07 | 4.07 | 4.10 | 4.67 | 4.31 |  |  |
| O=C1N(Cc2ccccc2)c2ccc(Cl)cc2C1(O)Cc1nnn[nH]1 (stereo not drawn) | 4.52 | < 4.00 | < 4.00 | < 4.00 | 4.00 |  |  |
| O=C1N(Cc2ccc(Br)cc2)c2ccc(Cl)cc2C1(O)Cc1nnn[nH]1 (stereo not drawn) | < 4.00 | 4.13 | 4.06 | 4.71 | 4.45 |  |  |

Second part, led by results:

| pIC50 (MDA-MB-231) | Compound | pIC50 [1] | pIC50 [2] | pIC50 [3] | pIC50 [4] | pIC50 [5] | Ratio IC50 [6] |
| --- | --- | --- | --- | --- | --- | --- | --- |
| < 4.00 | O=C1N(Cc2ccc(Br)cc2)c2ccc(F)cc2C1(O)Cc1nnn[nH]1 (stereo not drawn) | < 4.00 | < 4.00 | 4.84 | < 4.00 | < 4.00 |  |
| 4.02 | O=C1N(Cc2ccccc2)c2ccc(Br)cc2C1(O)Cc1nnn[nH]1 (stereo not drawn) | 4.40 | 4.12 | 4.34 | 4.13 |  |  |
| 4.18 | O=C1N(Cc2ccc(Br)cc2)c2ccc(Br)cc2C1(O)Cc1nnn[nH]1 (stereo not drawn) | 4.05 | < 4.00 | 4.22 | < 4.00 |  |  |
| < 4.00 | CN1C(=O)C(O)(Cc2nnn[nH]2)c2ccccc21 (stereo not drawn) | < 4.00 | 4.35 | 4.43 | 4.34 |  |  |
| < 4.00 | CCN1C(=O)C(O)(Cc2nnn[nH]2)c2cc(Br)ccc21 (stereo not drawn) | < 4.00 | < 4.00 | < 4.00 | < 4.00 |  |  |
